Legend:
db/db mice = assay: Blood glucose and insulin in mouse model of type II diabetes (Example 4); format: in vivo; details: single administration 0.2 g/kg per day by gavage, two weeks
Source text: Effects of a Limonoid Compound, Metformin or a Combination Thereof on Blood Glucose and Insulin in a Mouse Model of Type II Diabetes
In the present embodiment, the limonoid compound selected nomilin, deacetylnomilin, nomilin acid, deactylnomilin 17-β-D-glucopyranoside, and a nomilin single administration group, deacetylnomilin single administration group, nomilin acid single administered group, deactylnomilin 17-β-D-glucopyranoside single administration group, and combination thereof with metformin administration groups were set, respectively.
Conditions for experimental feeding: as type II diabetes model mice, 6-week-old SPF-grade db/db mice were purchased from the Nanjing Model Biology Institute, and subjected to experimental feeding after 7 days of preliminary feeding. It should be noted that the conditions for raising the mice were as follows: the temperature was 23±1° C., the humidity was 55±10%, the lights were turned on between 7 am and 7 pm (the lights were turned off at other time), and the mice were allowed to access to water and feed freely. The experimental feed was mouse growth-stable feed (GB M2118), and the daily feeding and management of the animals were under the responsibility of the animal security department, which provided the animals with sufficient padding and fresh drinking water daily.
Experimental grouping: male db/db mice (20±2 g) were selected, 18 male mice in each group were tested, and drinking bottles were sterilized weekly. The experimental groups included the normal control group (db/m, n=18), the model group (db/db, n=18), the nomilin group (db/db, n=18), the deacetylnomilin group (db/db, n=18), the nomilin acid group (db/db, n=18), the deactylnomilin 17-β-D-glucopyranoside group (db/db, n=18), the metformin group (db/db, n=18), the nomilin/metformin combination group (db/db, n=18), the deacetylnomilin/metformin combination group (db/db, n=18), the nomilin acid/metformin combination group (db/db, n=18), the deactylnomilin 17-β-D-glucopyranoside/combination group (db/db, n=18).
Gavage doses: nomilin at a dose of 0.2 g/kg was gavaged per day for the nomilin group, deacetylnomilin at a dose of 0.2 g/kg was gavaged per day for the deacetylnomilin group, nomilin acid at a dose of 0.2 g/kg was gavaged per day for the nomilin acid group, deacetylnomilin […] at a dose of 0.2 g/kg was gavaged per day for the deactylnomilin glucopyranoside group, metformin at a dose of 0.2 g/kg was gavaged per day for the metformin group, nomilin at a dose of 0.1 g/kg and metformin at a dose of 0.1 g/kg were simultaneously gavaged per day for the nomilin/metformin combination group, nomilin acid at a dose of 0.1 g/kg and metformin at a dose of 0.1 g/kg were simultaneously gavaged per day for the nomilin acid/metformin combination group, deacetylnomilin at a dose of 0.1 g/kg and metformin at a dose of 0.1 g/kg were simultaneously gavaged per day for the deacetylnomilin/metformin combination group, deactylnomilin 17-β-D-glucopyranoside at a dose of 0.1 g/kg and metformin at a dose of 0.1 g/kg were simultaneously gavaged per day for the deactylnomilin 17-β-D-glucopyranoside/metformin combination group, the gavage volume was 10 mL/kg, and the normal group and the model group were administrated with 10 mL/kg of distilled water. Two weeks later, the blood glucose values were measured by tail trimming method (Johnson's blood glucose meter) 1 h after the last administration, and serum insulin levels were measured with blood collected from orbital cavity by enzyme-linked immunosorbent assay (Elisa), and the average of each group was obtained. SPSS 16.0 software was used for statistical analysis. The data were expressed as mean and standard deviation. The data before and after were analyzed by t-test, and P<0.05 was considered statistically significant.

STZ mice = assay: Blood glucose in mouse pancreatic islet β-cell injury model (Example 3); format: in vivo; details: STZ ICR mice; single administration 0.1 g/kg per day by gavage, two weeks; 1 h after last administration
Source text: Effects of a Limonoid Compound, Metformin or a Combination Thereof on Blood Glucose in a Mouse Pancreatic Islet β-Cell Injury Model In this example, a mouse pancreatic islet β-cell injury model was established by modeling ICR mice with streptozotocin (STZ) (referred to the prior art literature: Li Nan et al., Protective effect of pine pollen on kidney damage in diabetic nephropathy mice, Science and Technology Review, 2014, 32 (4/5): 95-99), and used to complete the evaluation of hypoglycemic effect in animals (this model could simulate pancreatic islet β-cell damage state of type I and type II diabetics). […] Conditions of experimental feeding: ICR mice (20±2 g), aged 6 weeks, purchased from Zhejiang Academy of Medical Sciences, and subjected to experimental feeding after 7 days of preliminary feeding. […] The experimental feed was mouse growth-stable feed (GB […]), and the daily feeding and management of the animals were under the responsibility of the animal security department, which provided the animals with sufficient padding and fresh drinking water daily. Experimental grouping: 15 male mice were randomly selected as the normal control group. […] Gavage doses: the gavage dose was 0.1 g/kg per day for the […] group, the gavage dose was 0.1 g/kg per day for the […] group, the gavage dose was 0.1 g/kg per day for the […]-glucopyranoside group, the gavage dose of metformin was 0.1 g/kg per day for the metformin group, […] dose of 0.05 g/kg and metformin at a dose of 0.05 g/kg were simultaneously gavaged per day for the […]/metformin combination group, […] dose of 0.05 g/kg and metformin at a dose of 0.05 g/kg were simultaneously gavaged per day for the […]/metformin combination group, […]-glucopyranoside at a dose of 0.05 g/kg and metformin at a dose of 0.05 g/kg were simultaneously gavaged per day for the […]-glucopyranoside/metformin combination group, the gavage volume was 10 mL/kg, and the normal group and the model group were administrated with 10 mL/kg of distilled water. […] SPSS 16.0 software was used for statistical analysis. The data were expressed as mean and standard deviation. The data before and after were analyzed by t-test, and P<0.05 was considered statistically significant.

CN(C)C(=N)NC(=N)N [Metformin, N,N-dimethylimidodicarbonimidic diamide, reference compound]
Insulin (db/db mice; serum, Elisa): 8.19 ± 2.10 pg/mL
Blood glucose value (db/db mice; 1 h after last administration): 12.2 ± 3.6 mmol/L
Blood glucose value (STZ mice): 17.2 ± 3.9 mmol/L

From patent US11679097B2, “Combination product containing limonoid compound and biguanide compound” (ZHEJIANG YANGSHENGTANG INSTITUTE OF NATURAL MEDICATION CO., …, priority 2017, dated 2023)
